Assay results published in ChEMBL document CHEMBL5528029, “Design, synthesis, and biological evaluation of novel discoidin domain receptor inhibitors for the treatment of lung adenocarcinoma and pulmonary fibrosis” (Eur J Med Chem, 2024).
Each block holds one compound with its values, some of them ahead of it. Calls of active or inactive are those of the source. The calls are words filed in the database; no cut-off is given here.

Legend:
NIH3T3 [1] = test: Inhibition of TGF-beta1 induced mouse NIH3T3 cells activation assessed as reduction in collagen-I accumulation at 5 uM preincubated with TGF-beta1 followed by compound addition by immunofluorescence staining based assay; format: functional, cell-based
A549 [2] = test: Antiproliferative activity against human A549 cells incubated for 72 hrs by MTT assay; details: A549, 72 h
[3] = Antiproliferative activity against human SPCA1 cells incubated for 72 hrs by MTT assay; details: SPCA1, 72 h
NCI-H1975 = test: Antiproliferative activity against human NCI-H1975 cells incubated for 72 hrs by MTT assay; details: NCI-H1975, 72 h
A549 [4] = test: Effect on DDR1 level in human A549 cells at 50 to 200 nM by Western blotting analysis; format: functional, cell-based; details: dose 50-200 nM
A549 [5] = test: Effect on ERK1/2 level in human A549 cells at 50 to 200 nM by Western blotting analysis; format: functional, cell-based; details: dose 50-200 nM
A549 [6] = test: Effect on AKT1 level in human A549 cells at 50 to 200 nM by Western blotting analysis; format: functional, cell-based; details: dose 50-200 nM
A549 [7] = test: Inhibition of epithelial-to-mesenchymal transition in human A549 cells assessed as upregulation of E-cadherin protein expression at 50 to 200 nM by Western blotting analysis; format: functional, cell-based; details: dose 50-200 nM
A549 [8] = test: Inhibition of epithelial-to-mesenchymal transition in human A549 cells assessed as downregulation of N-cadherin protein expression at 50 to 200 nM by Western blotting analysis; format: functional, cell-based; details: dose 50-200 nM
A549 [9] = test: Antitumor activity against human A549 cells xenografted in SPF BALB/c nude mouse assessed as tumor growth inhibition at 30 mg/kg, ip administered for 14 days; format: functional, organism-based; details: time 14.0 day
NIH3T3 [10] = test: Inhibition of TGF-beta1 induced mouse NIH3T3 cells activation assessed as reduction in alpha-SMA level at 5 uM preincubated with TGF-beta1 followed by compound addition by immunofluorescence staining based assay; format: functional, cell-based
Mus musculus [11] = test: Antifibrotic activity against bleomycin-induced C57BL/6 mouse model of pulmonary fibrosis assessed as increase in animal survival at 30 mg/kg, ip administered once daily for 21 days; format: functional, organism-based; details: time 21.0 day
[12] = molecular target: T1, Discoidin domain-containing receptor 2 (Homo sapiens) (UniProt Q16832); test: Inhibition of DDR2 (unknown origin) assessed as remaining activity at 1 uM using fluorescein-poly GAT as substrate in presence of ATP by TR-FRET assay relative to control
T1 sequence (whole entry): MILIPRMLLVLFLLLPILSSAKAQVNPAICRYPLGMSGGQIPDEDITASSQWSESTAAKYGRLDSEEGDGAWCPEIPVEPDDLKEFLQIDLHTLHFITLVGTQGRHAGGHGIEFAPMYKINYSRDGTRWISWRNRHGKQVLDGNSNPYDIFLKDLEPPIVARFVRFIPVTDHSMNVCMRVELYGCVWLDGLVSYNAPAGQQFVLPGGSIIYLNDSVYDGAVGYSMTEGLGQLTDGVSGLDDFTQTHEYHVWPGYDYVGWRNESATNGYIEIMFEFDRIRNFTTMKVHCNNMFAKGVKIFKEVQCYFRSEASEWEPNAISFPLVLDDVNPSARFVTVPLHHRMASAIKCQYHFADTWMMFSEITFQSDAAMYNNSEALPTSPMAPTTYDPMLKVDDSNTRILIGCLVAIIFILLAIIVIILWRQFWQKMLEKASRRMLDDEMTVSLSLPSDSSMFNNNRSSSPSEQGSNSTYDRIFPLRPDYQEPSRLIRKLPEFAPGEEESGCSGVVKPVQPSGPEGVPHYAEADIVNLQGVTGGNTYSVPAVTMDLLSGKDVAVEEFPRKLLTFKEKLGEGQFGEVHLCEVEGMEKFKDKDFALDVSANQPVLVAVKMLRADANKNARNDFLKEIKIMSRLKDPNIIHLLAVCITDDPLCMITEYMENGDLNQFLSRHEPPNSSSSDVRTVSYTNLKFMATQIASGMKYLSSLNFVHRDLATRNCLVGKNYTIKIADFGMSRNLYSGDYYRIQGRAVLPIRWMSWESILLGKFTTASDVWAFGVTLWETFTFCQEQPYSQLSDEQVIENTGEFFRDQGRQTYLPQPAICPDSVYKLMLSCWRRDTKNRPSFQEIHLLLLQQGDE

[13] = molecular target: High affinity nerve growth factor receptor (Homo sapiens) (UniProt P04629); test: Inhibition of TRK-A (unknown origin) assessed as remaining activity at 1 uM using fluorescein-poly GAT as substrate in presence of ATP by TR-FRET assay relative to control
High affinity nerve growth factor receptor (Homo sapiens), sequence (P04629 33-796 limits assumed): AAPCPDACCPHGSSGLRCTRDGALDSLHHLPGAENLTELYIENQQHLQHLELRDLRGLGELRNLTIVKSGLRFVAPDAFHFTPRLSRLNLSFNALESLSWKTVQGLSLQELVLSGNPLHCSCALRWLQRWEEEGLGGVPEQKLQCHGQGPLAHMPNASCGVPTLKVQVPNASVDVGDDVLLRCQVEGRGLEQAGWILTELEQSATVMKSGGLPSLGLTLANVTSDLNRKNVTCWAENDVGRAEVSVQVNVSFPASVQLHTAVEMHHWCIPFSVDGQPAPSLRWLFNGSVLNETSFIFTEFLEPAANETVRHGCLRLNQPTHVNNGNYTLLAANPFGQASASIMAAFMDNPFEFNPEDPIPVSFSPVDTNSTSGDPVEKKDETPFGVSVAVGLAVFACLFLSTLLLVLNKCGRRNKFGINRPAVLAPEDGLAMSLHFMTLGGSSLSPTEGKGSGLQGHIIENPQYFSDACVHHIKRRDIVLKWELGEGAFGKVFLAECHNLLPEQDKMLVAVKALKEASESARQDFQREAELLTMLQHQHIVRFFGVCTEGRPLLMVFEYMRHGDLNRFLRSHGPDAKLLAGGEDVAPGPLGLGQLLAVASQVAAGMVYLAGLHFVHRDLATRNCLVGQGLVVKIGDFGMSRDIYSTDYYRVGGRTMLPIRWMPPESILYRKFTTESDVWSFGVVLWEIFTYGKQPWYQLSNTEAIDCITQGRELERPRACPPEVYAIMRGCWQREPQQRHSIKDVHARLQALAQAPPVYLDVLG

[14] = molecular target: BDNF/NT-3 growth factors receptor (Homo sapiens) (UniProt Q16620); test: Inhibition of TRK-B (unknown origin) assessed as remaining activity at 1 uM using fluorescein-poly GAT as substrate in presence of ATP by TR-FRET assay relative to control
BDNF/NT-3 growth factors receptor (Homo sapiens), sequence (Q16620 32-822 limits assumed): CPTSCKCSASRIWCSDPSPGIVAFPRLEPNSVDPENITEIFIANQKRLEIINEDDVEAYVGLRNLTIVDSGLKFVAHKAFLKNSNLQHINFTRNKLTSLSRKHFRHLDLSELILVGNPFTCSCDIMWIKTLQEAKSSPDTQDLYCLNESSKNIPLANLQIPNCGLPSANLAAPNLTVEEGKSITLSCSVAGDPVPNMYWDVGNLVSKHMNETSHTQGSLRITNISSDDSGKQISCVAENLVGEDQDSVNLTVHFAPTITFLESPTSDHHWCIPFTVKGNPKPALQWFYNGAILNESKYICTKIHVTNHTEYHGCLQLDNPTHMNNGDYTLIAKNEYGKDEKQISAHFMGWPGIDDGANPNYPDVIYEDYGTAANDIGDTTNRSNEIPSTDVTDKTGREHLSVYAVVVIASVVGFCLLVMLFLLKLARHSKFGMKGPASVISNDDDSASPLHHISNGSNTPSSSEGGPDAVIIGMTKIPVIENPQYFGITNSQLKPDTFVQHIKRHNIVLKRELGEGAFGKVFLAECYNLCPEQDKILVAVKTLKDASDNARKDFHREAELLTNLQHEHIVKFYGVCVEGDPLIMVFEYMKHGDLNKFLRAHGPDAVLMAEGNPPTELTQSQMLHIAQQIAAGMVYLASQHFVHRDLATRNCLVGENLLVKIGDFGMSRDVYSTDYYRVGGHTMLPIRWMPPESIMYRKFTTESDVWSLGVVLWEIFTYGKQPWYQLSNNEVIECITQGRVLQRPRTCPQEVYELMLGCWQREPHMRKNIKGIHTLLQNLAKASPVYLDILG

[15] = molecular target: NT-3 growth factor receptor (Homo sapiens) (UniProt Q16288); test: Inhibition of TRK-C (unknown origin) assessed as remaining activity at 1 uM using fluorescein-poly GAT as substrate in presence of ATP by TR-FRET assay relative to control
NT-3 growth factor receptor (Homo sapiens), sequence (Q16288 32-839 limits assumed): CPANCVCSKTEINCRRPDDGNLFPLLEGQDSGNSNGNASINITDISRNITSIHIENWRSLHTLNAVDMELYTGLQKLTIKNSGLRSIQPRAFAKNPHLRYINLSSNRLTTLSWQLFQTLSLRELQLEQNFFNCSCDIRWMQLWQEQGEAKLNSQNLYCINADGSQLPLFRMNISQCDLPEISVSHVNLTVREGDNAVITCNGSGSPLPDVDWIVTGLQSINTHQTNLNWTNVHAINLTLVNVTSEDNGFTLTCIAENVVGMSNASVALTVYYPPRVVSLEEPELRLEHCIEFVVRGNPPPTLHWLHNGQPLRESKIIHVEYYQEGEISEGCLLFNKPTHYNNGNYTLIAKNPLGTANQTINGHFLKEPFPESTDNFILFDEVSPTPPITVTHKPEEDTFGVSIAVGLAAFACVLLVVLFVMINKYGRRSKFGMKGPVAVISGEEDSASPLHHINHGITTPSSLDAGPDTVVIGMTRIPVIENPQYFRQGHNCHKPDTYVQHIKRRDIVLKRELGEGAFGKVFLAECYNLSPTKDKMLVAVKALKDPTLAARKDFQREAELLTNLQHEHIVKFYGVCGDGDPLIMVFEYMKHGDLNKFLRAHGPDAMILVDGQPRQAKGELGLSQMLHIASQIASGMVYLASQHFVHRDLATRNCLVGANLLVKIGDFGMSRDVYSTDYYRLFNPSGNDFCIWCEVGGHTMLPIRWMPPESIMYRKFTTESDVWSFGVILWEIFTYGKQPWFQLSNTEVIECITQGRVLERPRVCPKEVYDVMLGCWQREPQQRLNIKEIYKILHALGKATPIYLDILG

[16] = molecular target: T2, Discoidin domain-containing receptor 2 (Homo sapiens, UniProt Q16832); test: Inhibition of DDR2 (unknown origin)
T2 sequence (Q16832 whole entry): T1 sequence (whole entry)

A549 [17] = test: Antiproliferative activity against human A549 cells transfected with DDR1 siRNA incubated for 72 hrs by MTT assay; format: functional, cell-based
[18] = molecular target: Mitogen-activated protein kinase; ERK1/ERK2 (Homo sapiens) (UniProt P27361+P28482); test: Inhibition of ERK1/2 phosphorylation in human A549 cells at 50 to 200 nM by Western blotting analysis; format: cell-based; details: dose 50-200 nM
Mitogen-activated protein kinase; ERK1/ERK2 (Homo sapiens), sequence (P27361 whole entry, looked up): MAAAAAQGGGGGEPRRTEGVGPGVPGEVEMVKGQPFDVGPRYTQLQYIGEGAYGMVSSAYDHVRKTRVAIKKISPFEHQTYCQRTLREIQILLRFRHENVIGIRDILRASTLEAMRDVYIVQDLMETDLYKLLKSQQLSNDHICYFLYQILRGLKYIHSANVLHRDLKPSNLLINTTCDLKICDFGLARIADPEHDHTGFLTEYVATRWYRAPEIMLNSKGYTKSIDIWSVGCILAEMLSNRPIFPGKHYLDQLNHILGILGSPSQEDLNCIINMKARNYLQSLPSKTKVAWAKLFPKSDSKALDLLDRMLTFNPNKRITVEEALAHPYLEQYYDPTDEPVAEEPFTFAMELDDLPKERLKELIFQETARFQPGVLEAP
Mitogen-activated protein kinase; ERK1/ERK2 (Homo sapiens), sequence (P28482 whole entry, looked up): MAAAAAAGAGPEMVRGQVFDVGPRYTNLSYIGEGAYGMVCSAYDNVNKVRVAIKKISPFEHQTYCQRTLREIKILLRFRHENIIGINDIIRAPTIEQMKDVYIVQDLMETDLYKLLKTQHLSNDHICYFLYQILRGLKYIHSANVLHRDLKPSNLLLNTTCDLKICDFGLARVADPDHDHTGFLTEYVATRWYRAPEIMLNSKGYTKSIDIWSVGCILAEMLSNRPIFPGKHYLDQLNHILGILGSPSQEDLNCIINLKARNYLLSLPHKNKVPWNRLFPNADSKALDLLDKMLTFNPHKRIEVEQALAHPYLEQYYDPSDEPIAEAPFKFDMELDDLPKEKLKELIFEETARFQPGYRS

[19] = molecular target: RAC-alpha serine/threonine-protein kinase (Homo sapiens) (UniProt P31749); test: Inhibition of Akt1 phosphorylation in human A549 cells at 50 to 200 nM by Western blotting analysis; format: cell-based; details: dose 50-200 nM
RAC-alpha serine/threonine-protein kinase (Homo sapiens), sequence (P31749 whole entry): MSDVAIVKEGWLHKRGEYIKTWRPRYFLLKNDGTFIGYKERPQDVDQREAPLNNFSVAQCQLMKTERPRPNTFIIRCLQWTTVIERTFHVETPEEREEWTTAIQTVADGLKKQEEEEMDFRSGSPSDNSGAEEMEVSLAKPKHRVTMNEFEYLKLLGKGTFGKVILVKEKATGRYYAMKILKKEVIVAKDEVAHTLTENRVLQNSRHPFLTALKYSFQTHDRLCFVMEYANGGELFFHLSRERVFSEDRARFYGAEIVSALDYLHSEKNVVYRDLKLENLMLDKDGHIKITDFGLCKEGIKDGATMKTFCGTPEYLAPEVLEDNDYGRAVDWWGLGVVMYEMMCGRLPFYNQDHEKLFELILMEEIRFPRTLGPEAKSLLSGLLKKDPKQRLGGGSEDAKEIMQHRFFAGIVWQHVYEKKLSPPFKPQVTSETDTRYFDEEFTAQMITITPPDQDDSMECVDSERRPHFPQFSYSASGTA

A549 [20] = test: Inhibition of cell migration in human A549 cells at 50 to 200 nM by transwell assay; format: functional, cell-based; details: dose 50-200 nM
A549 [21] = test: Inhibition of epithelial-to-mesenchymal transition in human A549 cells assessed as downregulation of N-cadherin protein expression at 200 nM by laser confocal microscopy analysis; format: functional, cell-based
A549 [22] = test: Inhibition of epithelial-to-mesenchymal transition in human A549 cells assessed as upregulation of E-cadherin protein expression at 200 nM by laser confocal microscopy analysis; format: functional, cell-based
[23] = Toxicity in SPF BALB/c nude mouse xenografted with human A549 cells assessed as weight loss at 30 mg/kg, ip administered for 14 days; format: organism-based; details: in vivo, 336 h, time 14 day
A549 [24] = test: Antitumor activity against human A549 cells xenografted in SPF BALB/c nude mouse assessed as reduction in Ki-67 expression at 30 mg/kg, ip administered for 14 days by immunohistochemistry analysis; format: functional, organism-based; details: time 14.0 day
A549 [25] = test: Antitumor activity against human A549 cells xenografted in SPF BALB/c nude mouse assessed as reduction in cell growth ratio at 30 mg/kg, ip administered for 14 days by TUNEL staining based immunohistochemistry analysis; format: functional, organism-based; details: time 14.0 day
Mus musculus [26] = test: In vivo inhibition of DDR1 phosphorylation in SPF BALB/c nude mouse xenografted with human A549 cells at 30 mg/kg, ip administered for 14 days; format: functional, organism-based; details: time 14.0 day
NIH3T3 [27] = test: Inhibition of TGF-beta1 induced mouse NIH3T3 cells activation assessed as reduction in collagen-I accumulation at 3 to 6 uM preincubated with TGF-beta1 followed by compound addition by immunofluorescence staining based assay; format: functional, cell-based; details: dose 3-6 µM
NIH3T3 [28] = test: Inhibition of TGF-beta1 induced mouse NIH3T3 cells activation assessed as reduction in alpha-SMA level at 3 to 6 uM preincubated with TGF-beta1 followed by compound addition by immunofluorescence staining based assay; format: functional, cell-based; details: dose 3-6 µM
Mus musculus [29] = test: Antifibrotic activity against bleomycin-induced C57BL/6 mouse model of pulmonary fibrosis assessed as increase in animal survival at 15 mg/kg, ip administered once daily for 21 days; format: functional, organism-based; details: time 21.0 day
Mus musculus [30] = test: Antifibrotic activity against bleomycin-induced C57BL/6 mouse model of pulmonary fibrosis assessed as reduction in total cell count in BALF at 30 mg/kg, ip administered once daily for 21 days; format: functional, organism-based; details: time 21.0 day
Mus musculus [31] = test: Antifibrotic activity against bleomycin-induced C57BL/6 mouse model of pulmonary fibrosis assessed as reduction in neutrophil count in BALF at 30 mg/kg, ip administered once daily for 21 days; format: functional, organism-based; details: time 21.0 day
Mus musculus [32] = test: Antifibrotic activity against bleomycin-induced C57BL/6 mouse model of pulmonary fibrosis assessed as reduction in inflammatory cytokines levels in BALF at 30 mg/kg, ip administered once daily for 21 days; format: functional, organism-based; details: time 21.0 day
Mus musculus [33] = test: Antifibrotic activity against bleomycin-induced C57BL/6 mouse model of pulmonary fibrosis assessed as reduction in collagen hyperplasia at 30 mg/kg, ip administered once daily for 21 days; format: functional, organism-based; details: time 21.0 day
Mus musculus [34] = test: Antifibrotic activity against bleomycin-induced C57BL/6 mouse model of pulmonary fibrosis assessed as reduction in morphological changes at 30 mg/kg, ip administered once daily for 21 days by H and E staining based assay; format: functional, organism-based; details: time 21.0 day
Mus musculus [35] = test: Antifibrotic activity against bleomycin-induced C57BL/6 mouse model of pulmonary fibrosis assessed as reduction in alpha-SMA level in pulmonary tissue at 30 mg/kg, ip administered once daily for 21 days by immunofluorescence staining based assay; format: functional, organism-based; details: time 21.0 day
Mus musculus [36] = test: Antifibrotic activity against bleomycin-induced C57BL/6 mouse model of pulmonary fibrosis assessed as reduction in collagen-I level in pulmonary tissue at 30 mg/kg, ip administered once daily for 21 days by immunofluorescence staining based assay; format: functional, organism-based; details: time 21.0 day

IC50 (A549 [2]): 2550 nM
IC50 (NCI-H1975): 1260 nM
SMILES: Cc1nc(Nc2ncc(C(=O)Nc3c(C)cccc3Cl)s2)cc(N2CCN(CCO)CC2)n1 [DASATINIB ANHYDROUS]
inhibition (NIH3T3 [1]): Active
IC50 [3]: 2460 nM
Activity (A549 [4]): inactive
Activity (A549 [5]): inactive
Activity (A549 [6]): inactive
inhibition (A549 [7]): Active
inhibition (A549 [8]): Active
Activity (A549 [9]): Active
inhibition (NIH3T3 [10]): Active
Activity (Mus musculus [11]): Active

Activity [12]: 13.7%
Activity [13]: 84.9%
Activity [14]: 106%
Activity [15]: 78.6%
IC50 [16]: 126 nM
IC50 (A549 [2]): 1840 nM
IC50 (NCI-H1975): 1870 nM
inhibition [18]: Active
inhibition [19]: Active
SMILES: CN1CCN(C(=O)Cn2cc(CNC(=O)Nc3ccc(F)cc3F)c3cc(F)ccc32)CC1
IC50 [3]: 3510 nM
Activity (A549 [4]): inactive
Activity (A549 [5]): inactive
Activity (A549 [6]): inactive
Activity (A549 [17]): inactive
inhibition (A549 [7]): Active
inhibition (A549 [8]): Active
inhibition (A549 [20]): Active
inhibition (A549 [21]): Active
inhibition (A549 [22]): Active
Activity (A549 [9]): Active
Activity [23]: Non-Toxic
Activity (A549 [24]): Active
Activity (A549 [25]): Active
inhibition (Mus musculus [26]): Active
inhibition (NIH3T3 [27]): Active
inhibition (NIH3T3 [28]): Active
Activity (Mus musculus [29]): Active
Activity (Mus musculus [11]): Active
Activity (Mus musculus [30]): Active
Activity (Mus musculus [31]): Active
Activity (Mus musculus [32]): Active
Activity (Mus musculus [33]): Active
Activity (Mus musculus [34]): Active
Activity (Mus musculus [35]): Active
Activity (Mus musculus [36]): Active
